The source of these data is ChEMBL document CHEMBL3120155, “4,4'-Diaminodiphenyl ether derivatives: synthesis, spectral, optical, thermal characterization and in-vitro cytotoxicity against Hep 3B and IMR 32 human cell lines” (Eur J Med Chem, 2014).

Experiment [1] is described as follows: Cytotoxicity against human Hep3B cells after 6 hrs by MTT assay. The class given is functional, cell-based, Hep 3B2.
Experiment [2] in a line: Cytotoxicity against human IMR32 cells after 6 hrs by MTT assay. It counts as functional, cell-based. As to conditions: IMR-32, 6 h.
Experiment [3] relates to Hep 3B2. In words: Induction of apoptosis in human Hep3B cells assessed as cell shrinkage at IC50 after 6 hrs by microscopic analysis. The class given is functional, cell-based.
The subject of experiment [4] is IMR-32. Description: Induction of apoptosis in human IMR32 cells assessed as cell shrinkage at IC50 after 6 hrs by microscopic analysis. The class given is functional, cell-based.
In experiment [5] the test system is IMR-32. In words: Induction of apoptosis in human IMR32 cells assessed as DNA fragmentation at IC50 after 6 hrs by agarose gel electrophoresis. The class given is functional, cell-based.
In experiment [6] the test system is Hep 3B2. Description: Induction of apoptosis in human Hep3B cells assessed as DNA fragmentation at IC50 after 6 hrs by agarose gel electrophoresis. The class given is functional, cell-based.

Values after ≈ are worked out from the molar mass of the structure shown. Active and inactive are the calls of the source. The calls are words filed in the database; no cut-off is given here.

Broadly, the IC50 is the concentration needed to halve the response being measured. Read a low IC50 as higher potency. With `C(=N\c1ccc(Oc2ccc(/N=C/c3c4ccccc4cc4ccccc34)cc2)cc1)/c1c2ccccc2cc2ccccc12`, the results for the IC50 in experiment [1] and in experiment [2] were 59.6 µg/mL (≈ 103 µM) and 50.3 µg/mL (≈ 87.3 µM), respectively.
Regarding `C(=N\c1ccc(Oc2ccc(/N=C/c3cccc4ccccc34)cc2)cc1)/c1cccc2ccccc12`, the outcome with Hep 3B2 [3], with IMR-32 [4], with IMR-32 [5] and in the experiment on Hep 3B2 [6] was Active. For the same compound, the values for the IC50 in experiment [1] and in experiment [2] were 14.1 µg/mL (≈ 29.6 µM) and 33.5 µg/mL (≈ 70.3 µM), respectively.
Regarding `c1ccc2c(CNc3ccc(Oc4ccc(NCc5cccc6ccccc56)cc4)cc3)cccc2c1`, the half-inhibitory concentration (IC50) in experiment [1] and in experiment [2] was 89.1 µg/mL (≈ 185 µM) each time.
In the case of `c1ccc2c(CNc3ccc(Oc4ccc(NCc5c6ccccc6cc6ccccc56)cc4)cc3)c3ccccc3cc2c1`, the 50% inhibitory concentration (IC50) in experiment [1] was found to be 50.1 µg/mL (≈ 86.3 µM); in experiment [2] it was 65 µg/mL (≈ 112 µM).
The corresponding values for `C(=N\c1ccc(Oc2ccc(/N=C/c3ccccc3)cc2)cc1)/c1ccccc1` are 29.8 µg/mL (≈ 79.3 µM) and 42.9 µg/mL (≈ 114 µM).
As for `c1ccc(CNc2ccc(Oc3ccc(NCc4ccccc4)cc3)cc2)cc1`, the IC50 in experiment [1] is 28.2 µg/mL (≈ 74.1 µM); in experiment [2] it was 31.9 µg/mL (≈ 83.9 µM). In addition, the outcome with IMR-32 [5] and in the experiment on Hep 3B2 [6] was Active.
Regarding `Nc1ccc(Oc2ccc(N)cc2)cc1`, the values for the half-inhibitory concentration (IC50) in experiment [1] and in experiment [2] were 83.2 µg/mL (≈ 415 µM) and 54.5 µg/mL (≈ 272 µM), respectively.
Taken in the same sequence, the figures for `C(=N\c1ccc(Oc2ccc(/N=C/c3cc4ccccc4c4ccccc34)cc2)cc1)/c1cc2ccccc2c2ccccc12` were 44.7 µg/mL (≈ 77.5 µM) and 63.1 µg/mL (≈ 109 µM).
